This note sets out measurements from ChEMBL document CHEMBL1201862, “PubChem BioAssay data set” (2004).

What all share (assay): NCI-60 cell line screen, 48 h
In test [1] the test system is COLO 205.
For test [2], the system named is HCC 2998.
Test [3] concerns HL-60.
Test [4] relates to HOP-62.
For test [5], the system named is HOP-92.
For test [6], the system named is HT-29.
In test [7] the test system is K562.
The test system of test [8] is MCF7.
Test [9] concerns Malme-3M.
Test [10] has as its system OVCAR-3.
Test [11] relates to OVCAR-5.
Test [12] deals with RPMI-8226.
In test [13] the test system is SF-539.
The subject of test [14] is SK-MEL-28.
Test [15] concerns SNB-19.
Test [16] deals with SNB-75.
For test [17], the system named is UACC-257.
In test [18] the test system is UACC-62.
In test [19] the test system is UO-31.
Test [20] relates to OVCAR-8.

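Briefly, cells in 96-well plates were exposed to five compound concentrations for 48 h, and endpoints were estimated by linear interpolation. GI50 marks 50% less growth.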 Activity calls are given as the source filed them. No stated cut-off is given here; in the data, active = GI50 up to about 1.1 µM and inactive = higher.

As for `O=C1/C(=C/c2ccc(Oc3ccccc3)cc2)N=C(c2ccccc2)N1c1ccc(S(=O)(=O)Nc2nccs2)cc1`, the GI50 in test [1] was 8.3 µM (inactive); in test [2], 1.56 µM (inactive); in [3], 6.73 µM (inactive); in test [4] it was 14.9 µM (inactive); in [5], 6.78 µM (inactive); in test [6], 9.68 µM (inactive). For the same compound, the GI50 in test [7] is 7.48 µM (inactive); in [8], 14.3 µM (inactive); in [9], 19.1 µM (inactive); in test [10], 17.3 µM (inactive); in test [11], 40.4 µM (inactive); in test [12] it was 6.34 µM (inactive). For the same compound, the GI50 in test [13] was 31.5 µM (inactive); in [14] it was 22.8 µM (inactive); in test [15] it was 35.3 µM (inactive); in [16], 7.53 µM (inactive); in [17], 21.3 µM (inactive); in test [18], 19.5 µM (inactive). Moreover, in [19], the GI50 is 21.8 µM (inactive).
Turning to `NC(=O)c1ccccc1NC(=O)C(=O)C(c1cnc2ccc([N+](=O)[O-])cc2n1)[N+](=O)[O-]` (stereo unspecified), the GI50 in [2], in [3], in test [4], in test [5], in test [6] and in test [7] was > 100 µM (inactive) in each case. Besides, the GI50 was 62.1 µM (inactive) in [8]; > 100 µM (inactive) in test [9]; > 100 µM (inactive) in test [10]; > 100 µM (inactive) in test [11]; > 100 µM (inactive) in test [20]; > 100 µM (inactive) in test [12]. Also, the GI50 in test [13] is > 100 µM (inactive); in [14], > 100 µM (inactive); in test [15], 79.1 µM (inactive); in test [16], > 100 µM (inactive); in test [17] it was > 100 µM (inactive); in [18], > 100 µM (inactive). Also, in test [19], the GI50 was 28.9 µM (inactive).
Regarding `CN(C)CC1CCCC1=O` (stereo unspecified), the GI50 was 0.56 µM (active) in test [1]; 2.17 µM (inactive) in test [2]; 0.084 µM (active) in [3]; 17.9 µM (inactive) in [4]; 0.973 µM (active) in test [5]; 0.682 µM (active) in test [6]. Further, the GI50 in [7] is 0.0632 µM (active); in test [8] it was 0.408 µM (active); in [9], 1.02 µM (active); in test [10] it was 1.51 µM (inactive); in test [11] it was 5.42 µM (inactive); in test [20], 3.62 µM (inactive). Moreover, the GI50 in [12] was 0.0502 µM (active); in test [13], 7.89 µM (inactive); in test [14] it was 2.98 µM (inactive); in [15], 31 µM (inactive); in [16] it was 3.78 µM (inactive); in test [17] it was 1.5 µM (inactive). The GI50 in [18] is 4.37 µM (inactive); in [19], 9.38 µM (inactive).
`COc1ccc(N(C)C(=O)N(C)c2ccc([N+](=O)[O-])cc2)cc1`: the GI50 is 33 µM (inactive) in [2]; 31 µM (inactive) in [3]; 39.4 µM (inactive) in test [4]; 25.5 µM (inactive) in [5]; 28.6 µM (inactive) in test [6]; 18.4 µM (inactive) in test [7]. The GI50 was 39.1 µM (inactive) in test [8]; 36.2 µM (inactive) in [9]; 26.7 µM (inactive) in test [10]; 39.9 µM (inactive) in test [11]; 71 µM (inactive) in test [20]; 51.1 µM (inactive) in test [12]. In addition, the GI50 was 29.6 µM (inactive) in [13]; 50.2 µM (inactive) in [14]; > 100 µM (inactive) in test [15]; 29.6 µM (inactive) in test [16]; 26.1 µM (inactive) in [17]; 33.9 µM (inactive) in [18]. Further, the GI50 in [19] is 41.4 µM (inactive).
With `CC(C)(CN1CCCCC1)C(=O)/C=C/c1c(Cl)cccc1Cl`, the GI50 is 1.57 µM (inactive) in [1]; 1.83 µM (inactive) in [2]; 1.61 µM (inactive) in test [3]; 1.79 µM (inactive) in test [4]; 1.05 µM (active) in test [5]; 1.38 µM (inactive) in test [6]. In addition, the GI50 was 0.736 µM (active) in test [7]; 1.29 µM (inactive) in test [8]; 0.489 µM (active) in test [9]; 0.955 µM (active) in [10]; 1.48 µM (inactive) in test [11]; 2.18 µM (inactive) in test [20]. For the same compound, the GI50 in test [12] is 3.89 µM (inactive); in test [13], 2.08 µM (inactive); in test [14], 1.56 µM (inactive); in [15], 2.44 µM (inactive); in test [16], 0.735 µM (active); in test [17], 2 µM (inactive). Moreover, the GI50 is 1.29 µM (inactive) in test [18] and 0.971 µM (active) in test [19].
Turning to `CCCCCCc1cc2cc(C(=O)Nc3nc(C45CC6CC(CC(C6)C4)C5)cs3)c(=O)oc2cc1O`, the GI50 in [1] is 16.7 µM (inactive); in [2], 8.15 µM (inactive); in test [3], 5.18 µM (inactive); in [4], 18.1 µM (inactive); in test [5], 4.93 µM (inactive); in [6], 13.3 µM (inactive). Further, the GI50 in [7] is 2.31 µM (inactive); in [8], 13.9 µM (inactive); in test [9], 19.7 µM (inactive); in test [10], 13.1 µM (inactive); in [11], 16 µM (inactive); in [20], 7.11 µM (inactive). In addition, the GI50 is 11.2 µM (inactive) in test [12]; 10.8 µM (inactive) in [13]; 29.3 µM (inactive) in test [14]; 12.3 µM (inactive) in test [15]; 7.62 µM (inactive) in test [16]; 24.6 µM (inactive) in test [17]. Also, the GI50 in [18] was 4.65 µM (inactive); in test [19], 24.5 µM (inactive).
On to `Oc1cc(O)c2c(c1)O[C@H](c1ccc(O)c(O)c1)[C@@H](O)C2` [CIANIDANOL], for which the GI50 in test [1], in [2], in test [3], in test [4], in test [5] and in test [6] was > 100 µM (inactive) throughout. For the same compound, the GI50 in test [7], in test [8], in test [9], in test [10], in test [11] and in test [20] was > 100 µM (inactive) throughout. Besides, the GI50 in test [12], in test [13], in test [14], in [15], in [16] and in test [17] was > 100 µM (inactive) in each case. Also, the GI50 in [19] was > 100 µM (inactive).
